From patent publication US12090142B2, “Combination therapy for the treatment of cancer” (The Board of Regents of the University of Texas System, priority 2018, dated 2024)

Columns and labels:
[1] = Cardiotoxicity associated with anthracycline drugs; conditions: earlier studies of the inventors
MC38 cells = test: MC38 subcutaneous tumor model in C57BL/6 WT and ARKO mice, tumor growth; format: in vivo, mouse; conditions: both the CRC models (CT26 and MC38)
Description: FIG. 7A-7D: AR deficiency/inhibition increases the efficacy of anti-PD1, decreases immune-related toxicities induced by anti-PD1 in CRC model, MC38. MC38 cells were inoculated subcutaneous in C57BL/6 WT and aldose reductase knockout (ARKO) mice. When tumors became palpable (approximately 40-43 mm^3), mice were randomized and treated with anti-PD-1 (twice a week), AR inhibitor (25 mg/kg/day in drinking water). MC38 tumor was left untreated in Con WT and ARKO or treated with Fid in WT, anti-PD-1 (PD1) in WT and ARKO or combination of both (Combo) in WT mice. Con WT and ARKO mice were also treated with isotype controls (PD-1 iso). […] Tumor growth was measured twice a week and animals were euthanized when the tumor volume reaches 2000 mm^3 in the control mice (approximately 27 days). […] Isolated TILs from tumors were analyzed by flow cytometry for intracellular staining of IFN-γ and granzyme B to analyze the effector function of CD8^+ T and NK cells in TILs. […]
MC38 cells were inoculated subcutaneous in C57BL/6 WT and aldose reductase knockout (ARKO) mice. […] Tumor growth was measured twice a week and animals were euthanized when the tumor volume reaches 2000 mm^3 in the control mice (approximately 27 days). […] Isolated TILs from tumors were analyzed by flow cytometry for intracellular staining of IFN-γ and granzyme B to analyze the effector function of CD8^+ T and NK cells in TILs. […]

CT-26 cells = test: CT-26 syngeneic Balb/c mouse tumor model, tumor growth; format: in vivo; conditions: CT-26 syngeneic mouse model
Description: CT-26 cells (0.5×10^6) were injected subcutaneously into the flanks of Balb/c mice (n=4-7) on day 0. When tumor volume reaches approximately 45 mm^3, the mice were injected (i.p.) anti-PD-1, 200 μg/mouse, twice per week. Aldose reductase inhibitor (ARI) (25 mg/kg/day) were given in drinking water or by gavage. CT26 tumor were left untreated (Con) or treated with fidarestat (Fid), anti-PD-1 (PD1) or combination of both (Combo). Con mice were also treated with isotype matched control antibodies (PD-1 iso). Tumor growth was measured twice per week and animals were euthanized when the tumor volume reaches 2000 mm^3 in the control mice (˜30 days). Tumor volume (A) and tumor weight (B) were measured. Data Mean S.E.M. P<0.05; *P<0.05; **P<0.01 by one-way ANOVA followed by Dunnet and Tukey's multiple comparison test.

colorectal cancer cells = test: Sensitivity of colorectal cancer cells to doxorubicin; format: cell-based; conditions: earlier studies of the inventors
Text: The inventors have also shown that AR inhibition prevents colorectal cancer cells growth in tissue culture, nude mouse xenografts, and chemically-induced animal models of colorectal cancer. Based on these studies, the inventors investigated whether an AR inhibitor such as fidarestat could be used as combination therapy along with immune checkpoint inhibitor such as an anti-PD1 antibody resulting in an increase in the immunotherapeutic efficacy of anti-PD1 and prevent CRC growth.

[2] = Phase-III clinical trial, diabetic nephropathy; cited from earlier work

Structure (SMILES): NC(=O)[C@@H]1C[C@]2(NC(=O)NC2=O)c2cc(F)ccc2O1 [fidarestat, (2S,4S)-6-fluoro-2′,5′-dioxospiro(chroman-4,4′-imidazolidine)-2-carboxamide]
- cardiotoxicity associated with anthracycline drugs [1]: prevented cardiotoxicity
- efficacy of anti-PD1 and tumor growth (MC38 cells): increases the efficacy of anti-PD1 and decreases the tumor growth
- sensitivity of anti-PD1 immunotherapy (CT-26 cells): significantly increases the sensitivity of anti-PD1 immunotherapy
- sensitivity of colorectal cancer cells to doxorubicin (colorectal cancer cells): increased the sensitivity
- side effects [2]: no major side effects
